Tests used:
[1] = molecular target: T1, Human melanocortin (MC5) (Homo sapiens, UniProt P33032); experiment: Radioligand binding, human melanocortin MC5 membranes, FlashPlate, [125I]-NDP-αMSH; details: compound at 10 μM, [125I]-NDP-αMSH
T1 construct: purchased Perkin Elmer Biosignal
How it was run: (§1)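 Cloned human receptor membranes were coated onto FlashPlate wells and incubated with radioligand and compound (added from a 0.5 mM DMSO daughter plate) for 1 hour at room temperature in the dark. Scintillation counting gave percent inhibition, with DMSO defining total and reference ligand defining non-specific binding.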

[2] = molecular target: T2, Human Melanocortin (MC3) (Homo sapiens, UniProt P41968); experiment: Radioligand binding, human melanocortin MC3 membranes, FlashPlate, [125I]-NDP-αMSH; details: compound at 10 μM, [125I]-NDP-αMSH
T2 construct: purchased Perkin Elmer Biosignal
How it was run: as §1

[3] = molecular target: T3, Human neurokinin (NK1) (Homo sapiens, UniProt P25103); experiment: Radioligand binding, human neurokinin NK1 membranes, filtration, [125I]-Substance P; details: compound at 10 μM, [125I]-Substance P
T3 construct: purchased Perkin Elmer Biosignal
How it was run: (§2)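 Filtration binding on cloned human receptor membranes (1 Unit/well), [125I]-Substance P for NK1 and [3H]-Diprenorphine for KOP, 1 h at room temperature. Filters PEI-presoaked, washed with cold 50 mM Tris-HCl pH 7.4, counted by scintillation; percent inhibition calculated, reference ligand defining non-specific binding.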

[4] = molecular target: T4, Human melanin-concentrating hormone (MCH1) (Homo sapiens, UniProt Q99705); experiment: Radioligand binding, human melanin-concentrating hormone MCH1 membranes, FlashPlate, [125I]-S36057; details: compound at 10 μM
T4 construct: purchased Perkin Elmer Biosignal
How it was run: as §1

[5] = molecular target: T5, Human δ-opioid (DOP) (Homo sapiens, UniProt P41143); experiment: Radioligand binding, human δ-opioid (DOP) membranes, FlashPlate, [3H]-Bremazocine; details: compound at 10 μM, [3H]-Bremazocine
T5 construct: purchased Perkin Elmer Biosignal
How it was run: as §1

[6] = molecular target: T6, Human Melanocortin (MC4) (Homo sapiens, UniProt P32245); experiment: Radioligand binding, human melanocortin MC4 membranes, FlashPlate, [125I]-NDP-αMSH; details: compound at 10 μM, [125I]-NDP-αMSH
T6 construct: purchased Perkin Elmer Biosignal
How it was run: as §1

[7] = molecular target: T7, Human μ-opioid (MOP) (Homo sapiens, UniProt P35372); experiment: Radioligand binding, human μ-opioid (MOP) membranes, FlashPlate, [3H]-Naloxone; details: compound at 10 μM, [3H]-Naloxone
T7 construct: purchased Perkin Elmer Biosignal
How it was run: as §1

[8] = molecular target: T8, Mouse urotensin (mUR2) (Mus musculus, UniProt Q8VIH9); experiment: Radioligand binding, mouse urotensin mUR2 membranes, FlashPlate, [125I]-Urotensin II; details: compound at 10 μM, [125I]-Urotensin II
T8 construct: purchased Perkin Elmer Biosignal
T8 sequence (Q8VIH9 1-385): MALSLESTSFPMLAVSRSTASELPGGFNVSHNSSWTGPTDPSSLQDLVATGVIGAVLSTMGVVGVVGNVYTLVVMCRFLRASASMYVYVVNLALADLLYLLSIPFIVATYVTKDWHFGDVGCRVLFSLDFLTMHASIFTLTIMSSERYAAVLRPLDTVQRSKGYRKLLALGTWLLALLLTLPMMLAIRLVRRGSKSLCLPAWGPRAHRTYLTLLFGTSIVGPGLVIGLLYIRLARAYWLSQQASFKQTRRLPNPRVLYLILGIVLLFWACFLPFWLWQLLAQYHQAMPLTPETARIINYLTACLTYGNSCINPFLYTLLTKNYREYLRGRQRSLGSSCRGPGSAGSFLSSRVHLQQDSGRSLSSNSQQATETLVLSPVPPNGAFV
How it was run: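 Cloned mouse urotensin (mUR2) receptor membranes from Perkin Elmer Biosignal were immobilized in FlashPlate microplates using a proprietary coating. Each well got 19.5 μl buffer, then 0.5 μl of DMSO, reference ligand, or compound. Adding 5 μl of [125I]-Urotensin II, diluted to 5× final concentration in binding buffer, started binding. Plates were sealed with TopSeal-A and incubated 1 hour at room temperature in the dark. Wells were counted for 30 seconds each on a TopCount after a 60-second delay, and percentage inhibition was calculated.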

[9] = molecular target: T9, Human κ-Opioid (KOP) (Homo sapiens, UniProt P41145); experiment: Radioligand binding, human κ-opioid (KOP) membranes, filtration, [3H]-Diprenorphine; details: compound at 10 μM, [3H]-Diprenorphine
T9 construct: purchased Perkin Elmer Biosignal
How it was run: as §2

[10] = molecular target: T10, Human neuropeptide Y (NPY-Y1) (Homo sapiens, UniProt P25929); experiment: Radioligand binding, human neuropeptide Y NPY-Y1 membranes, FlashPlate, [125I]-PYY; details: compound at 10 μM, [125I]-PYY
T10 construct: purchased Perkin Elmer Biosignal
T10 sequence (P25929 1-384): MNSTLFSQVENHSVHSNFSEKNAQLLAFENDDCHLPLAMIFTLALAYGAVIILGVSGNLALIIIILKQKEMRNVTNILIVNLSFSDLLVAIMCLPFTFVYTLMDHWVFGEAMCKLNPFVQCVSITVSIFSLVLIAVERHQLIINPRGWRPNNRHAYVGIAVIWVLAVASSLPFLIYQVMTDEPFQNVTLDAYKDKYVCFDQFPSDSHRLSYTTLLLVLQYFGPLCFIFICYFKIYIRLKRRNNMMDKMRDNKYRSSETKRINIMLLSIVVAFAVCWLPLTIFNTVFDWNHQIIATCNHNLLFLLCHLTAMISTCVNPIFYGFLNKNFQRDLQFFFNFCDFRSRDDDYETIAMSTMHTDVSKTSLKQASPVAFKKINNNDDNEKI
How it was run: as §1

[11] = molecular target: T11, Human opioid (ORL1) (Homo sapiens, UniProt P41146); experiment: Radioligand binding, human opioid ORL1 membranes, FlashPlate, [125I]-Nociceptin; details: compound at 10 μM, [125I]-Nociceptin
T11 construct: purchased Perkin Elmer Biosignal
How it was run: as §1

T1 sequence (P33032 whole entry): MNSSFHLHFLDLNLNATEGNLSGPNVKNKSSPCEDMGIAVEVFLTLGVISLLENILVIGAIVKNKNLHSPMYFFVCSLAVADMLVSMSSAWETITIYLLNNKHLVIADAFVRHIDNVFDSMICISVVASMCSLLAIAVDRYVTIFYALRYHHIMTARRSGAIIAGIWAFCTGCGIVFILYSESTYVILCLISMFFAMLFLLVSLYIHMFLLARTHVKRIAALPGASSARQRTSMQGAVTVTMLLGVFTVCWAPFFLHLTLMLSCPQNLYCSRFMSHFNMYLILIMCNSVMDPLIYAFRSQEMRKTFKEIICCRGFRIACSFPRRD
T11 sequence (P41146 whole entry): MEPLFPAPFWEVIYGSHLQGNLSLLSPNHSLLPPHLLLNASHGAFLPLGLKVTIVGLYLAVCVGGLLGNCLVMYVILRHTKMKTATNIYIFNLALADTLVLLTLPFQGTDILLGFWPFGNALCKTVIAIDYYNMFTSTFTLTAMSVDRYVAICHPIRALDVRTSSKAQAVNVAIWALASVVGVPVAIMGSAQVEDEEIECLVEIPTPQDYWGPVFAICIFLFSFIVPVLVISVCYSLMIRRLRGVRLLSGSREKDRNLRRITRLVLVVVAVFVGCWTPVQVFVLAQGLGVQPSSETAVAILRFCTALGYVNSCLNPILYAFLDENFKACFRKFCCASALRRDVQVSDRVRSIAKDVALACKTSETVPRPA
T3 sequence (P25103 whole entry): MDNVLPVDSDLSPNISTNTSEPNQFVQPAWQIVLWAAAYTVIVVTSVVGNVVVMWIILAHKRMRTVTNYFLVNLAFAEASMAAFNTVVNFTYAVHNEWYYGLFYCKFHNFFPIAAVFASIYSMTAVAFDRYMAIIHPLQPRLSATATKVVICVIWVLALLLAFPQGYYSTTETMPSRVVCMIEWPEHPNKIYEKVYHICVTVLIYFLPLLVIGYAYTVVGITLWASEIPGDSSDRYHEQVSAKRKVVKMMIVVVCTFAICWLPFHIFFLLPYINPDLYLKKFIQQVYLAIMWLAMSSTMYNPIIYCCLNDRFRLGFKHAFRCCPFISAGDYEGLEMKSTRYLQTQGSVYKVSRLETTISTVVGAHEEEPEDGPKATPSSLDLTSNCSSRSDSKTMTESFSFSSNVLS
T9 sequence (P41145 whole entry): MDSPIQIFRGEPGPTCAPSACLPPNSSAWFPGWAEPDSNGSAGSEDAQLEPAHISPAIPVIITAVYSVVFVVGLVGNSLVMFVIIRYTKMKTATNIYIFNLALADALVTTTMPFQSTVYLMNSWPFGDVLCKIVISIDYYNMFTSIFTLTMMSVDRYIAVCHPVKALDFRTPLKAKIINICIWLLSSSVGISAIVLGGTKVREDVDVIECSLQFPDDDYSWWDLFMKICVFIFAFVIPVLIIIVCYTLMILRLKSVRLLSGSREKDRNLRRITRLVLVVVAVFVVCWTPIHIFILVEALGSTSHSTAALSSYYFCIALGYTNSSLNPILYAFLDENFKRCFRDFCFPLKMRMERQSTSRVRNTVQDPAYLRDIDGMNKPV
T4 sequence (Q99705 whole entry): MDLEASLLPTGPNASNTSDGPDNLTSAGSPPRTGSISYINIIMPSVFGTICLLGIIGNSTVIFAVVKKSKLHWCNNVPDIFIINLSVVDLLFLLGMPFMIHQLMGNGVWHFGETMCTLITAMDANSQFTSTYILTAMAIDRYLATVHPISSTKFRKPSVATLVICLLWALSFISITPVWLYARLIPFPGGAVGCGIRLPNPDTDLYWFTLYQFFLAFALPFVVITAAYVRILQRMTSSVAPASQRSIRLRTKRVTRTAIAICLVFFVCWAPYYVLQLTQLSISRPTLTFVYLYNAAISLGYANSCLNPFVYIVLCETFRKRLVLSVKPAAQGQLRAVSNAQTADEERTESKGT
T5 sequence (P41143 whole entry): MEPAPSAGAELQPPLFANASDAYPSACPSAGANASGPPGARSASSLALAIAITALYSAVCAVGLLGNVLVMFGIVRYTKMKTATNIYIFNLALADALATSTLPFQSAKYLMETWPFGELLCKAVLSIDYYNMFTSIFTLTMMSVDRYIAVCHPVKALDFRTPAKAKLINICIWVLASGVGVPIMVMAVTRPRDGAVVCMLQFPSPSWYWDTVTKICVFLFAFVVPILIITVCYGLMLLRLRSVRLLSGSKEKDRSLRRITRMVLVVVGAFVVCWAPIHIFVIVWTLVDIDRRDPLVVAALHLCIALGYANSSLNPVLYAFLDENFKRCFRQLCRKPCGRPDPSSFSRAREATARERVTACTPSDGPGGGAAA
T7 sequence (P35372 whole entry): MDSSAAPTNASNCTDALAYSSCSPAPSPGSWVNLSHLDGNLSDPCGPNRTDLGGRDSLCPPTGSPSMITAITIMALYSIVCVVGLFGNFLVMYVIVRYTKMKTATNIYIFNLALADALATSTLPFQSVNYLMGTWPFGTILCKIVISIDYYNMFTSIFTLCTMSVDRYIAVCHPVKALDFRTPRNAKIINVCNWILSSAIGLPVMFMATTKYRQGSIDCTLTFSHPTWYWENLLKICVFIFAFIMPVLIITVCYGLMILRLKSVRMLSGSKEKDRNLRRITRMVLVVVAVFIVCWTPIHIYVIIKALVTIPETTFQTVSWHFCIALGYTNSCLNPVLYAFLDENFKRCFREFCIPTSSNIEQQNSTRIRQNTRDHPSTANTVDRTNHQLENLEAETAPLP
T2 sequence (P41968 whole entry): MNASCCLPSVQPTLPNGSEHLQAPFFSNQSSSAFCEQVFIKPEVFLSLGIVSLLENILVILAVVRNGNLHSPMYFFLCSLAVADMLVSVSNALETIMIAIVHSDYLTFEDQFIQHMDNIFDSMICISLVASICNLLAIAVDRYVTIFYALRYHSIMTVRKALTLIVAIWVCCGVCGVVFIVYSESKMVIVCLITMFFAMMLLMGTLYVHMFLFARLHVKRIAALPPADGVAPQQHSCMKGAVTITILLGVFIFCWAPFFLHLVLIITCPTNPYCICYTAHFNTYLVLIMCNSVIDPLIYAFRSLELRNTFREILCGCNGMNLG
T6 sequence (P32245 whole entry): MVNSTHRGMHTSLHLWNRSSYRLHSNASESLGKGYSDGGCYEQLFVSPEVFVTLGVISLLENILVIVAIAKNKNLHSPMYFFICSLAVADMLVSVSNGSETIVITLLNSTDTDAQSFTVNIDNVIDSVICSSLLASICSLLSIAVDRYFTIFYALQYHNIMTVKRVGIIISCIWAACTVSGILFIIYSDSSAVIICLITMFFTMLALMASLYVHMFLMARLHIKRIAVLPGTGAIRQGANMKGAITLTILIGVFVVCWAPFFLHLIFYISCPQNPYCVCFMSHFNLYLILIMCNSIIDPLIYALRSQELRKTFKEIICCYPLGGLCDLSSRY

NCCC(=O)N[C@H]1C(OCc2ccc3ccccc3c2)O[C@H](COCc2ccc3ccccc3c2)[C@@H](O)[C@@H]1OCc1ccccc1 (stereo partly shown) [compound 448]
A5: inhibition of radioligand binding ([1]; human MC5 membranes): + (“+” indicates greater than 50% inhibition at 10 μM)
A3: inhibition of radioligand binding ([2]; human MC3 membranes, 10 µM): − (“−” indicates less than 50% inhibition at 10 μM)
A8: inhibition of radioligand binding ([3]; human NK1 membranes): + (“+” indicates greater than 50% inhibition at 10 μM)
A6: inhibition of radioligand binding ([4]; [125I]-S36057, human MCH1 membranes, 10 µM): − (“−” indicates less than 50% inhibition at 10 μM)
A1: inhibition of radioligand binding ([5]; human DOP membranes): − (“−” indicates less than 50% inhibition at 10 μM)
A4: inhibition of radioligand binding ([6]; human MC4 membranes): + (“+” indicates greater than 50% inhibition at 10 μM)
A7: inhibition of radioligand binding ([7]; human MOP membranes): − (“−” indicates less than 50% inhibition at 10 μM)
A11: inhibition of radioligand binding ([8]; mouse mUR2 membranes): − (“−” indicates less than 50% inhibition at 10 μM)
A2: inhibition of radioligand binding ([9]; human KOP membranes): − (“−” indicates less than 50% inhibition at 10 μM)
A9: inhibition of radioligand binding ([10]; human NPY-Y1 membranes): − (“−” indicates less than 50% inhibition at 10 μM)
A10: inhibition of radioligand binding ([11]; human ORL1 membranes, 10 µM): − (“−” indicates less than 50% inhibition at 10 μM)

NCCC(=O)NC1C(OCc2ccccc2)OC(COCc2ccccc2)C(O)C1OCc1ccc(Cl)cc1 (stereo not shown) [compound 365]
A5: inhibition of radioligand binding, human melanocortin (MC5) [1]: − (“−” indicates less than 50% inhibition at 10 μM)
A3: inhibition of radioligand binding, human melanocortin (MC3) [2]: − (“−” indicates less than 50% inhibition at 10 μM)
A8: inhibition of radioligand binding, human neurokinin (NK1) [3]: + (“+” indicates greater than 50% inhibition at 10 μM)
A6: inhibition of radioligand binding, human melanin-concentrating hormone (MCH1) ([4]; [125I]-S36057): − (“−” indicates less than 50% inhibition at 10 μM)
A1: inhibition of radioligand binding, human δ-opioid (DOP) [5]: − (“−” indicates less than 50% inhibition at 10 μM)
A4: inhibition of radioligand binding, human melanocortin (MC4) [6]: − (“−” indicates less than 50% inhibition at 10 μM)
A7: inhibition of radioligand binding, human μ-opioid (MOP) [7]: − (“−” indicates less than 50% inhibition at 10 μM)
A11: inhibition of radioligand binding, mouse urotensin (mUR2) [8]: − (“−” indicates less than 50% inhibition at 10 μM)
A2: inhibition of radioligand binding, human κ-opioid (KOP) [9]: − (“−” indicates less than 50% inhibition at 10 μM)
A9: inhibition of radioligand binding, human neuropeptide Y (NPY-Y1) [10]: − (“−” indicates less than 50% inhibition at 10 μM)
A10: inhibition of radioligand binding, human opioid (ORL1) [11]: − (“−” indicates less than 50% inhibition at 10 μM)
